Assay results as given in ChEMBL document CHEMBL1156276, “Solvent free synthesis, anti-inflammatory and anticancer activity evaluation of tricyclic and tetracyclic benzimidazole derivatives” (2010).
Structures can show the parent of a compound that is named as a salt.

What was measured:
Assay type in all cases: functional
[1] = test system: IGROV-1; assay: Anticancer activity against human IGROV1 cells assessed as cell growth inhibition at 10 uM after 48 hrs by SRB assay; settings: IGROV-1, 48 h, read-out: GI
[2] = test system: A549; assay: Anticancer activity against human A549 cells assessed as cell growth inhibition at 10 uM after 48 hrs by SRB assay; settings: A549, 48 h, read-out: GI
[3] = test system: MCF7; assay: Anticancer activity against human MCF7 cells assessed as cell growth inhibition at 10 uM after 48 hrs by SRB assay; settings: MCF7, 48 h, read-out: GI
[4] = test system: PC-3; assay: Anticancer activity against human PC3 cells assessed as cell growth inhibition at 10 uM after 48 hrs by SRB assay; settings: PC-3, 48 h, read-out: GI
[5] = test system: HOP-62; assay: Anticancer activity against human HOP62 cells assessed as cell growth inhibition at 10 uM after 48 hrs by SRB assay; settings: HOP-62, 48 h, read-out: GI
[6] = test system: SF-295; assay: Anticancer activity against human SF295 cells assessed as cell growth inhibition at 10 uM after 48 hrs by SRB assay; settings: SF-295, 48 h, read-out: GI
[7] = test system: Rattus norvegicus; assay: Antiinflammatory activity against carrageenan-induced paw edema in rat assessed as paw volume at 50 mg/kg, po administered 30 mins before carrageenan challenge measured after 1 to 3 hrs by water plethysmometer relative to control

Row | Compound | inhibition of growth at 10 µM [1] [%] | inhibition of growth at 10 µM [2] [%] | inhibition of growth at 10 µM [3] [%] | inhibition of growth at 10 µM [4] [%] | inhibition of growth at 10 µM [5] [%] | inhibition of growth at 10 µM [6] [%] | Activity [7] [%]
1 | Cc1cc2[nH]c3cc4ccccc4c(=O)n3c2cc1C | 7 | 41 | 22 | 39 | 0 | 13 | 29.6
2 | O=c1c2ccccc2cc2[nH]c3cccc(O)c3n12 | 15 | 0 | 20 | 13 | 0 | 55 | 31.8
3 | O=C1c2nccnc2C2=NC3CCCCC3N12 (configuration not stated) | 28 | 10 | 48 | 15 | 6 | 37 | 25.6
4 | Cc1cc2nc3n(c2cc1C)C(=O)c1nccnc1-3 | 7 | 25 | 22 | 39 | 0 | 13 | 15.9
5 | O=C1c2nccnc2C2=Nc3ccccc3CN12 | 55 | 48 | 56 | 46 | 23 | 66 | 28.6
6 | O=C1c2nccnc2-c2nc3ccccc3n21 | 15 | 0 | 20 | 13 | 10 | 25 | 10
7 | O=C1CCC2=NC3CCCCC3N12 (configuration not stated) | 2 | 2 | 13 | 16 | 0 | 38 | 19.7
8 | O=C1CCc2nc3cccc(O)c3n21 | 20 | 0 | 22 | 13 | 9 | 53 | 39.2
9 | O=C1CCc2nc3ccc(Br)cc3n21 | 50 | 12 | 31 | 40 | 16 | 0 | 10
10 | O=C1CCc2nc3ccc([N+](=O)[O-])cc3n21 | 0 | 5 | 12 | 8 | 0 | 38 | 0
11 | N#Cc1ccc2nc3n(c2c1)C(=O)CC3 | 21 | 6 | 25 | 3 | 0 | 52 | 9
12 | Cc1cccc2nc3n(c12)C(=O)CC3 | 3 | 2 | 8 | 14 | 0 | 38 | 29.9
13 | O=C1CCc2nc3ccc(Cl)cc3n21 | 0 | 3 | 52 | 14 | 11 | 37 | 27.6
14 | O=c1c2ccccc2cc2n1C1CCCCC1N2 (configuration not stated) | 28 | 10 | 6 | 6 | 12 | 0 | 34.7
15 | Cc1cc2nc3n(c2cc1C)C(=O)CC3 | 26 | 0 | 8 | 7 | 4 | 54 | 39.4
16 | COc1cccc2c1C(=O)c1c(O)c3c(c(O)c1C2=O)C[C@@](O)(C(=O)CO)C[C@@H]3O[C@H]1C[C@H](N)[C@H](O)[C@H](C)O1 [DOXORUBICIN HYDROCHLORIDE] | – | – | 72 | – | – | 69 | –
17 | CO[C@@]12[C@H](COC(N)=O)C3=C(C(=O)C(C)=C(N)C3=O)N1C[C@@H]1N[C@@H]12 [MITOMYCIN] | – | – | – | 53 | – | 43 | –
18 | CC(=O)O[C@H]1C(=O)[C@@]2(C)[C@H]([C@H](OC(=O)c3ccccc3)[C@]3(O)C[C@H](OC(=O)[C@H](O)[C@@H](NC(=O)c4ccccc4)c4ccccc4)C(C)=C1C3(C)C)[C@]1(OC(C)=O)CO[C@@H]1C[C@@H]2O [PACLITAXEL] | 43 | 50 | – | – | 42 | – | –
